From patent US20220089575A1, “FARNESOID X RECEPTOR AGONISTS AND USES THEREOF” (Metacrine, Inc., priority 2017, published 2022) come the findings set out here.

For this assay, the target named is T1, hFXR (Homo sapiens, UniProt Q96RI1).
T1 construct: expressed in transfected cells; host or cells: CV-1 cells
T1 sequence (Q96RI1 1-486): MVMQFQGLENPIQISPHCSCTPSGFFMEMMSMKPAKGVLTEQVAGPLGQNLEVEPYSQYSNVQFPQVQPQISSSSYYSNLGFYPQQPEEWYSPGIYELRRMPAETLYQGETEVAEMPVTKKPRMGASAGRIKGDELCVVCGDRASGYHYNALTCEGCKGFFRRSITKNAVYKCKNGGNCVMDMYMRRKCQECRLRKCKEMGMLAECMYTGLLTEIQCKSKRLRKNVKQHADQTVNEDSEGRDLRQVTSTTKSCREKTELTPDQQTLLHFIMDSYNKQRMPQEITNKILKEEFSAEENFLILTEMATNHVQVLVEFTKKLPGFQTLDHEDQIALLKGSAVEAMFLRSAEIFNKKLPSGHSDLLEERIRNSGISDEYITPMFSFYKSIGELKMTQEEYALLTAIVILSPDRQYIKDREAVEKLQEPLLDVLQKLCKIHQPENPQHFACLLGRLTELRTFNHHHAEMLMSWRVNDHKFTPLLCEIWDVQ
T1 sequence (P19793 1-462 partner): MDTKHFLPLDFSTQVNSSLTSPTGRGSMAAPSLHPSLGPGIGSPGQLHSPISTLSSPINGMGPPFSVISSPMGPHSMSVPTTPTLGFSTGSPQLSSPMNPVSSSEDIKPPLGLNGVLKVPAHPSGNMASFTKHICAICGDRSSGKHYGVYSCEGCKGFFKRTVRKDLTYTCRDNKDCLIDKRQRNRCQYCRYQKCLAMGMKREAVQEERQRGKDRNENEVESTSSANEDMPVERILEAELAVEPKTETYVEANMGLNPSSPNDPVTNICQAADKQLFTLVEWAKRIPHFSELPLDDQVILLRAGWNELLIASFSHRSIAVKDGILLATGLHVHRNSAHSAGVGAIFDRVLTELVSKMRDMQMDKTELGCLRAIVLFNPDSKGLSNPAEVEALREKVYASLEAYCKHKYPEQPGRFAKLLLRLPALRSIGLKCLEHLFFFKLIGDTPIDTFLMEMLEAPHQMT
Put plainly: In Vitro FXR Assay (TK): TK-ECRE-luc reporter in transfected CV-1 cells. The settings on record: 18 hrs, luminescence, maximum efficacy of <25% of the Fexarmine control classified as '+'. The class given is cell-based. The essentials: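 CV-1 cells transiently co-transfected with hFXR, hRXR, TK-ECRE-luc and pCMX-YFP plasmids in charcoal-stripped serum medium. Serially diluted compounds added, cells incubated 18 h at 37° C, then lysed and luminescence read.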

What is called EC50 is the concentration needed to bring the measured effect to its halfway point. High values mean lower potency in that assay, low ones higher potency in that assay. `COc1ccc([C@H]2CC[C@H](CN(c3cc(-c4coc(C5CC5)n4)ccn3)C(=O)[C@H]3CC[C@H](OC(=O)N4CCNCC4)CC3)CC2)nc1C` [Compound 6.78, trans-4-(4-(2-Cyclopropyloxazol-4-yl)pyridine-2-yl)((trans-4-(5-methoxy-6-methylpyridin-2-yl)cyclohexyl)methyl) carbamoyl)cyclohexylpiperazine-1-carboxylate]: the 50% effective concentration (EC50) is 250 to 1000 nM.

`CNC(=O)OCC(=O)N[C@H]1CC[C@H](C(=O)N(C[C@H]2CC[C@H](c3ccc(OC)c(C)c3)CC2)c2cccc(-c3cnc(C4CC4)s3)c2)CC1` [Compound 25.15, 2-((trans-4-((3-(2-Cyclopropylthiazol-5-yl)phenyl)((trans-4-(4-methoxy-3-methylphenyl)cyclohexyl)methyl)carbamoyl)cyclohexyl)amino)-2-oxoethyl methylcarbamate] had a concentration giving a half-maximal response (EC50) of at most 250 nM. With `COc1ccc([C@H]2CC[C@H](CN(c3cc(-c4cnn(C(C)C)c4)ccn3)C(=O)[C@H]3CC[C@H](OC(=O)NCCO)CC3)CC2)cc1C` [Compound 6.17, trans-4-((4-(1-Isopropyl-1H-pyrazol-4-yl)pyridin-2-yl)((trans-4-(4-methoxy-3-methylphenyl)cyclohexyl)methyl)carbamoyl)cyclohexyl (2-hydroxyethyl)carbamate], the half-maximal effective concentration (EC50) is at most 250 nM.

Molecule `COc1ccc([C@H]2CC[C@H](CN(c3cc(-c4coc(C5CC5)n4)ccn3)C(=O)[C@H]3CC[C@H](NC(=O)CO)CC3)CC2)cc1C` [Compound 26.18, trans-N-(4-(2-Cyclopropyloxazol-4-yl)pyridin-2-yl)-4-(2-hydroxyacetamido)-N-((trans-4-(4-methoxy-3-methylphenyl)cyclohexyl)methyl) cyclohexanecarboxamide] registered a concentration for a half-maximal effect (EC50) of at most 250 nM. In the case of `COc1ccc([C@H]2CC[C@H](CN(c3cc(-c4cnn(C5CC5)c4)ccn3)C(=O)[C@H]3CC[C@H](C(=O)O)CC3)CC2)nc1C` [Compound 17.21, trans-4-((4-(1-Cyclopropyl-1H-pyrazol-4-yl)pyridin-2-yl)((trans-4-(5-methoxy-6-methylpyridin-2-yl)cyclohexyl)methyl)carbamoyl) cyclohexanecarboxylic acid], the concentration for a half-maximal effect (EC50) is at least 1000 nM. Under `COc1ccc([C@H]2CC[C@H](CN(c3cccc(-c4cnn(C5CC5)c4)c3)C(=O)[C@H]3CC[C@H](OC(=O)N4CC(CSC)C4)CC3)CC2)cc1C` [Compound 4.28, trans-4-((3-(1-Cyclopropyl-1H-pyrazol-4-yl)phenyl)((trans-4-(4-methoxy-3-methylphenyl)cyclohexyl)methyl)carbamoyl)cyclohexyl 3-((methylthio)methyl)azetidine-1-carboxylate] stands at most 250 nM; under `CNC(=O)O[C@H]1CC[C@H](C(=O)N(C[C@H]2CC[C@H](c3ccc(OC)c(C)c3)CC2)c2cc(-c3cnn(C4CC4)c3)ccn2)CC1` [Compound 3.04, trans-4-((4-(1-Cyclopropyl-1H-pyrazol-4-yl)pyridin-2-yl)((trans-4-(4-methoxy-3-methylphenyl)cyclohexyl)methyl)carbamoyl)cyclohexyl methylcarbamate], at most 250 nM. Under `CCNC(=O)O[C@H]1CC[C@H](C(=O)N(C[C@H]2CC[C@H](c3ccc(OC)c(C#N)c3)CC2)c2cc(-c3cnn(C(C)C)c3)ccn2)CC1` [Compound 5, trans-4-(((trans-4-(3-Cyano-4-methoxyphenyl)cyclohexyl)methyl)(4-(1-isopropyl-1H-pyrazol-4-yl)pyridin-2-yl)carbamoyl)cyclohexyl ethylcarbamate] stands at most 250 nM.

`COc1ccc([C@H]2CC[C@H](CN(c3cccc(-c4cnn(C5CC5)c4)c3)C(=O)[C@H]3CC[C@H](OC(=O)NCCN(C)C)CC3)CC2)cc1C` [Compound 4.09, trans-4-((3-(1-Cyclopropyl-1H-pyrazol-4-yl)phenyl)((trans-4-(4-methoxy-3-methylphenyl)cyclohexyl)methyl)carbamoyl)cyclohexyl (2-(dimethylamino)ethyl)carbamate] yielded an EC50 of at most 250 nM. The figure for `COc1ccc(C23CCC(CN(c4cccc(-c5cnn(C6CC6)c5)c4)C(=O)[C@H]4CC[C@H](NC(C)=O)CC4)(CC2)CC3)cc1C` [Compound 26.07, trans-4-Acetamido-N-(3-(1-cyclopropyl-1H-pyrazol-4-yl)phenyl)-N-((4-(4-methoxy-3-methylphenyl)bicyclo[2.2.2]octan-1-yl)methyl)cyclohexanecarboxamide] is at most 250 nM; for `CNC(=O)O[C@H]1CC[C@H](C(=O)N(C[C@H]2CC[C@H](c3ccc(OC)c(C)c3)CC2)c2cccc(-c3cnn(C(C)C)c3)c2)CC1` [Compound 5.10, trans-4-((3-(1-Isopropyl-1H-pyrazol-4-yl)phenyl)((trans-4-(4-methoxy-3-methylphenyl)cyclohexyl)methyl)carbamoyl)cyclohexyl methylcarbamate] it is at most 250 nM; for `COC(=O)NCC(=O)N[C@H]1CC[C@H](C(=O)N(C[C@H]2CC[C@H](c3ccc(OC)c(C)c3)CC2)c2cccc(-c3cnc(C4CC4)s3)c2)CC1` [Compound 31.05, Methyl (2-((trans-4-((3-(2-cyclopropylthiazol-5-yl)phenyl)((trans-4-(4-methoxy-3-methylphenyl)cyclohexyl)methyl)carbamoyl)cyclohexyl)amino)-2-oxoethyl)carbamate] it is at most 250 nM.

Molecule `COC(=O)NCCNC(=O)O[C@H]1CC[C@H](C(=O)N(C[C@H]2CC[C@H](c3ccc(OC)c(C)c3)CC2)c2cccc(-c3cnn(C4CC4)c3)c2)CC1` [Compound 26.25, trans-4-((3-(1-Cyclopropyl-1H-pyrazol-4-yl)phenyl)((trans-4-(4-methoxy-3-methylphenyl)cyclohexyl)methyl)carbamoyl)cyclohexyl methyl ethane-1,2-diyldicarbamate] yielded a 50% effective concentration (EC50) of at most 250 nM. As to `CNC(=O)O[C@H]1CC[C@H](C(=O)N(C[C@H]2CC[C@H](c3ccc(OC)c(C#N)c3)CC2)c2cccc(-c3coc(C4CC4)n3)c2)CC1` [Compound 5.35, trans-4-(((trans-4-(3-Cyano-4-methoxyphenyl)cyclohexyl)methyl)(3-(2-cyclopropyloxazol-4-yl)phenyl)carbamoyl)cyclohexyl methylcarbamate], the 50% effective concentration (EC50) was at most 250 nM. Under `COc1ccc([C@H]2CC[C@H](CN(c3cc(-c4cnn(C(C)C)c4)ccn3)C(=O)[C@H]3CC[C@H](OC(=O)N4CC(OC)C4)CC3)CC2)nc1C` [Compound 7.55, trans-4-((4-(1-Isopropyl-1H-pyrazol-4-yl)pyridin-2-yl)((trans-4-(5-methoxy-6-methylpyridin-2-yl)cyclohexyl)methyl)carbamoyl)cyclohexyl 3-methoxyazetidine-1-carboxylate] stands at most 250 nM; under `CNC(=O)O[C@H]1CC[C@H](C(=O)N(C[C@H]2CC[C@H](c3ccc(OC)c(C#N)n3)CC2)c2cc(-c3coc(C4CC4)n3)ccn2)CC1` [Compound 5.44, trans-4-(((trans-4-(6-Cyano-5-methoxypyridin-2-yl)cyclohexyl)methyl)(4-(2-cyclopropyloxazol-4-yl)pyridine-2-yl)carbamoyl)cyclohexyl methylcarbamate], at most 250 nM.
